Laboratory results from PubChem BioAssay AID1996.
In brackets after ≈: the same amount, converted by molar mass.

Conditions: buffer; pH 7.4; 200.0 µM

Structure (SMILES)	solubility kinetic
Cc1ccc(S(=O)(=O)Oc2ccccc2/C=C2/SC(=O)NC2=O)cc1	52.7 µg/mL (≈ 140 µM)
COc1ccc(NC(=O)c2cc([N+](=O)[O-])ccc2N2CCCCC2)cc1	0.3 µg/mL (≈ 0.844 µM)
COc1ccc(N2CCN(C(=O)CCc3ccccc3)CC2)cc1	> 48.7 µg/mL
COc1ccc(N2C(=O)C3CCCN3C2=S)cc1 (stereo unspecified)	> 39.3 µg/mL
CCC(NC(=O)c1cncc(Br)c1)c1ccccc1 (stereo unspecified)	> 47.9 µg/mL
CCc1cccc2c(=O)c(C(=O)NCCCOC)c[nH]c12	> 43.3 µg/mL
CCNS(=O)(=O)c1ccc(CCC(=O)NCc2ccncc2)cc1	> 52.1 µg/mL
O=C(Nc1nc(-c2ccccc2)ns1)c1ccncc1	2.4 µg/mL (≈ 8.5 µM)
Cc1cccc(C(=O)N[C@H](C(=O)Nc2ccc(C)c(S(=O)(=O)N3CCOCC3)c2)C(C)C)c1	5.4 µg/mL (≈ 11.4 µM)
Cc1ccccc1CC(=O)Nc1cccnc1	> 33.9 µg/mL
CC(C)C(=O)O/N=C1\CCS(=O)(=O)c2sccc21	> 43.1 µg/mL
OCC(O)CN1CCN(c2ccccc2)CC1 (stereo unspecified)	> 35.4 µg/mL
CC(=O)c1cccc(S(=O)(=O)Nc2c(C)nn(C)c2C)c1	> 46.1 µg/mL
O=C(COC(=O)c1ccc([N+](=O)[O-])o1)NCc1ccc2c(c1)OCO2	> 52.2 µg/mL
Nc1c(NCCc2ccccc2)c2ccccc2oc1=O	> 42 µg/mL
CCNC(=S)Nc1ccc2ncoc2c1	> 33.2 µg/mL
COc1ccccc1NC(=O)Nc1ccncc1	16.5 µg/mL (≈ 67.8 µM)
COC(=O)c1[nH]c2c(c1C)C(=O)CC(c1ccc(OC)c(OC)c1)C2 (stereo unspecified)	2.1 µg/mL (≈ 6.12 µM)
Cc1cc(OCC(=O)OCC(=O)NCc2cccs2)ccc1Cl	14 µg/mL (≈ 39.6 µM)
OCCNc1cc(Cl)ncn1	> 26 µg/mL
COc1ccc(CNC(=O)CN2C(=O)NC3(CCCCCC3)C2=O)cc1	> 53.9 µg/mL

Structure (SMILES)	solubility kinetic
Cc1ccc(-n2c(C(C)C)nc3oc4ccccc4c(=O)c3c2=O)cc1	14.7 µg/mL (≈ 42.4 µM)
CCN(CC)CC#CCC(O)(c1ccccc1)c1ccccc1	> 46.1 µg/mL
C=C(C)CNC(=O)c1ccc2nc(Cc3ccc(OC)cc3)oc2c1	40.5 µg/mL (≈ 120 µM)
CC(C)(C)c1ccc(N2C(=O)CSC2c2cccnc2)cc1 (stereo unspecified)	43 µg/mL (≈ 138 µM)
Cc1c(C)n(Cc2ccccc2)c2ncnc(Cl)c12	0.3 µg/mL (≈ 1.1 µM)
Cc1cccc(Nc2nc(CC(=O)O)cs2)c1	24.6 µg/mL (≈ 99.1 µM)
COC(=O)c1ccc(COc2ccccc2/C=N/O)o1	> 41.3 µg/mL
CC(C)CCNC(=O)c1cc(-c2cccs2)nc2ccccc12	< 0.3 µg/mL
Nc1ccc(-c2nc3ncccc3o2)cc1	> 31.7 µg/mL
COc1cc(NC(=S)N2CCCC2)cc(OC)c1	34.8 µg/mL (≈ 131 µM)
O=C(Nc1ccccc1)c1ccc(-c2ccc([N+](=O)[O-])cc2)o1	7.4 µg/mL (≈ 24 µM)
CC(C)c1ccc(NC(=O)COc2ccc(C3SCCS3)cc2)cc1	4.1 µg/mL (≈ 11 µM)
O=C(COC(=O)COc1cccc(Br)c1)NCc1ccc2c(c1)OCO2	32.6 µg/mL (≈ 77.2 µM)
NC(=O)c1ccc(NC(=O)C2CCCC2)cc1	> 34.8 µg/mL
CC(C)(C)c1ccc(OCc2cnc(Cl)s2)cc1	< 0.6 µg/mL
CNc1nc(-c2ccc(S(=O)(=O)N3CCCCC3)cc2)cs1	2.8 µg/mL (≈ 8.3 µM)
Cc1ccc(C(=O)Nc2ccc(C(F)(F)F)n(C)c2=O)cc1	2.1 µg/mL (≈ 6.77 µM)
Cc1cc(C)c(N=C2SCC(=O)N2Cc2ccco2)c(C)c1	11.5 µg/mL (≈ 36.6 µM)
CCC1(CC)Cc2ccccc2-c2nc(NCCCO)[nH]c(=O)c21	42 µg/mL (≈ 128 µM)
NC(=O)NC(c1ccc(Cl)cc1)c1ccccc1Cl (stereo unspecified)	> 44.3 µg/mL
O=C(NC(=S)Nc1ccc2ncccc2c1)c1ccccc1	1.4 µg/mL (≈ 4.55 µM)

Structure (SMILES)	solubility kinetic
O=C(Nc1cccc(S(=O)(=O)NC2=NCCC2)c1)c1ccc(F)cc1	> 54.2 µg/mL
CC1(C)CC(=O)C2=C(C1)Nc1ccccc1S2	3 µg/mL (≈ 12.2 µM)
C/[N+]([O-])=C/c1c(OCc2ccccc2)ccc2ccccc12	> 43.7 µg/mL
COc1ccc(Nc2nc3cc(C)ccc3cc2C#N)cc1	< 0.2 µg/mL
Cc1ccccc1OS(=O)(=O)c1cn(C)c(=O)n(C)c1=O	> 46.5 µg/mL
Cc1ccc(C(=O)Nc2cccnc2Cl)cc1Cl	32.9 µg/mL (≈ 117 µM)
Cc1cc(C(=O)COc2ccc(C#N)cc2)c(C)n1CC1CCCO1 (stereo unspecified)	16.7 µg/mL (≈ 49.3 µM)
Nc1nc2ccccc2cc1S(=O)(=O)c1ccccc1	1.1 µg/mL (≈ 3.87 µM)
CCn1c(SCC(=O)NCC2CCCO2)nc2ccccc21 (stereo unspecified)	> 47.9 µg/mL
Cc1ccc(NC(=O)NCCCN2CCCC2=O)cc1Cl	> 46.5 µg/mL
NS(=O)(=O)c1ccc(O)c(NC(=O)c2ccc([N+](=O)[O-])o2)c1	> 49.1 µg/mL
Cc1cc2c(NC3CCCCC3)ncnc2s1.Cl	15 µg/mL
O=C(NCC(=O)N1CCN(c2ccccc2)CC1)c1ccco1	> 47 µg/mL
CCCC(C)NC(=O)c1sc2nc3n(c(=O)c2c1C)CCC3 (stereo unspecified)	> 47.9 µg/mL
CN(C)CCCN1c2ccccc2Sc2ccccc21.Cl	> 48.1 µg/mL
CC(N=C1NC(C)(C)Cc2ccccc21)C(=O)O (stereo unspecified)	33.2 µg/mL (≈ 135 µM)
Cc1nc(Cl)c(C(=O)Nc2cccc(F)c2)c(C)c1Cl	4.9 µg/mL (≈ 15.6 µM)
O=C(O)Cc1c[nH]c2ccc(O)cc12	> 28.7 µg/mL
CCCCCCNC1=NCCS1	22.9 µg/mL (≈ 123 µM)
